Data reported in patent US10206893B2, “Immunoregulatory agents” (Flexus Biosciences, Inc., priority 2014, dated 2019).

Key:
[1] = biological target: T1, indoleamine 2,3-dioxygenase (IDO) (Homo sapiens, UniProt P14902); experiment: HeLa cell-based indoleamine 2,3-dioxygenase (IDO) assay (IFNγ-induced kynurenine production); conditions: Tables 3-7; compounds shown only as drawings; read-out: Potency (IDO IC50)
T1 construct: host or cells: HeLa cells, IDO induced with IFNγ (25 ng/mL)
Description: Assessment of inhibitor activity in HeLa cell-based indoleamine 2,3-dioxygenase (IDO) assay.
HeLa (ATCC® CCL-2) cells were obtained from the ATCC® and cultured in Dulbecco's Modified Eagle Medium supplemented with 4.5 g/L glucose, […] (#10-013-CV, Corning), 2 mM L-alanyl-L-glutamine dipeptide (#35050-061, Gibco), 100 U/mL penicillin, 100 μg/mL streptomycin (#SV30010, HyClone) and 10% fetal bovine serum (#SH30071.03 HyClone). Cells were maintained in a humidified incubator at 37° C. in 5% CO2.
IDO activity was assessed as a function of kynurenine production as follows: HeLa cells were seeded in a 96-well culture plate at a density of 5,000 cells/well and allowed to equilibrate overnight. After 24 hours, the media was aspirated and replaced with media containing IFNγ (#285-IF/CF, R&D Systems) at a final concentration of 25 ng/mL. A serial dilution of each test compound was added to the cells in a total volume of 200 μL of culture medium. After a further 48 hour incubation, 170 μL of supernatant was transferred from each well to a fresh 96-well plate. 12.1 μL of 6.1N trichloroacetic acid (#T0699, Sigma-Aldrich) was added to each well and mixed, followed by incubation at 65° C. for 20 minutes to hydrolyze N-formylkynurenine, the product of indoleamine 2,3-dioxygenase, to kynurenine. The reaction mixture was then centrifuged for 10 mins at 500×g to sediment the precipitate. 100 μL of the supernatant was transferred from each well to a fresh 96-well plate. 100 μl of 2% (w/v) p-dimethylaminobenzaldehyde (#15647-7, Sigma-Aldrich) in acetic acid (#A6283, Sigma-Aldrich) was added to each well mixed and incubated at room temperature for 20 mins. Kynurenine concentrations were determined by measuring absorbance at 480 nm and calibrating against an L-kynurenine (#K8625, Sigma-Aldrich) standard curve using a SPECTRAMAX® M2e microplate reader (Molecular Devices). The percentage activity at each inhibitor concentration was determined and IC50 values assessed using nonlinear regression.
Activity for compounds described herein is provided in Tables 3-7, wherein potency levels are provided as follows: (Potency: IDO IC50: A<0.1 μM; B<1 μM; C<10 μM)

human IDO1 = biological target: T2, human IDO1 (Homo sapiens, UniProt P14902); experiment: IDO inhibition assay in HEK293 cells stably expressing human IDO1 (kynurenine, Ehrlich reagent); format: cell-based; conditions: 20 hours incubation, read-out: HEK Human IDO-1 Bio Activity
T2 construct: expressed in transfected cells
T2 sequence (P14902 whole entry): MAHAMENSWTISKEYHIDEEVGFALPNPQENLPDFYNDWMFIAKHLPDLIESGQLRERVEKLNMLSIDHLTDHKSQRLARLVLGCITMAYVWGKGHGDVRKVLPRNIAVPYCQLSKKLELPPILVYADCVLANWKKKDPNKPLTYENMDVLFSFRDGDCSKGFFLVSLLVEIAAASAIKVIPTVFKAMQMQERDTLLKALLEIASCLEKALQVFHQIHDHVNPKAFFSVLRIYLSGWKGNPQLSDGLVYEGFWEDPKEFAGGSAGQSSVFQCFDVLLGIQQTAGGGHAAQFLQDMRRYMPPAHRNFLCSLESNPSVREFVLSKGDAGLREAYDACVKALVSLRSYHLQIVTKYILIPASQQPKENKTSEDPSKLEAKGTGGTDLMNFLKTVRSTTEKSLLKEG
Description: They were cultured in medium (DMEM with 10% FBS) containing 1 mg/ml G418 for two weeks.
The human IDO1/HEK293 cells were seeded at 10,000 cells per 50 μL per well with RPMI/phenol red free media contains 10% FBS in a 384-well black wall clear bottom tissue culture plate (Matrix Technologies LLC) 100 nL of certain concentration of compound was then added to each well using ECHO liquid handling systems. The cells were incubated for 20 hours in 37° C. incubator with 5% CO2.
The compound treatments were stopped by adding trichloroacetic acid (Sigma-Aldrich) to a final concentration at 0.2%. The cell plate was further incubated at 50° C. for 30 minute. The equal volume supernatant (20 μL) and 0.2% (w/v) Ehrlich reagent (4-dimethylaminobenzaldehyde, Sigma-Aldrich) in glacial acetic acid were mixed in a new clear bottom 384-well plate. This plate was then incubated at room temperature for 30 minute. The absorbance at 490 nm was measured on Envision plate reader.

T1 sequence (P14902 whole entry): as above

SMILES | IC50 [1] [nM] | IC50 (human IDO1) [nM]
O=C(Nc1ccc(Cl)cc1)[C@H]1CC[C@@H](Cc2ccccc2)CC1 | < 2000 | 
O=C(Nc1ccc(Cl)cc1)[C@H]1CC[C@H](Cc2ccccc2)CC1 | < 2000 | 
N#Cc1ccc(NC(=O)[C@H]2CC[C@@H](Cc3ccccc3)CC2)cc1 | < 2000 | 
N#Cc1ccc(NC(=O)[C@H]2CC[C@H](Cc3ccccc3)CC2)cc1 | < 2000 | 
O=C(Nc1ccc(F)cc1)[C@H]1CC[C@@H](Cc2ccccc2)CC1 | < 2000 | 
O=C(Nc1ccc(F)cc1)[C@H]1CC[C@H](Cc2ccccc2)CC1 | < 2000 | 
COc1ccc(NC(=O)[C@H]2CC[C@@H](Cc3ccccc3)CC2)cc1 | < 2000 | 
COc1ccc(NC(=O)[C@H]2CC[C@H](Cc3ccccc3)CC2)cc1 | < 2000 | 
COc1ccc(C2CCC(CC(=O)NCc3ccccc3)CC2)cc1 (stereo not shown) | < 2000 | 
COc1ccc([C@H]2CC[C@@H](CC(=O)NCc3ccccc3)CC2)cc1 | < 250 | 
N#Cc1ccc(C(=O)NC[C@H]2CC[C@@H](c3ccccc3)CC2)cc1 | < 250 | 
O=S(=O)(NC[C@H]1CC[C@@H](c2ccccc2)CC1)c1ccc(Cl)cc1 | < 250 | 
N#Cc1cccc(C(=O)NC[C@H]2CC[C@@H](c3ccccc3)CC2)c1 | < 50 | 
O=C(c1ccc(Cl)cc1)N1CCC(Cc2ccccc2)CC1 | < 2000 | 
O=C(NC[C@H]1CC[C@@H](c2ccccc2)CC1)c1ccc(Cl)cc1 | < 250 | 
O=C(c1cccc(Cl)c1)N1CCC(Cc2ccccc2)CC1 | < 2000 | 
O=C(NC[C@H]1CC[C@@H](c2ccccc2)CC1)c1cccc(Cl)c1 | < 50 | 
O=C(NC[C@H]1CC[C@@H](c2ccccc2)CC1)c1ccc(F)cc1 | < 50 | 
COc1ccc([C@H]2CC[C@@H](CCNc3ccc(Cl)cc3)CC2)cc1 | < 250 | 
COc1ccc([C@H]2CC[C@H](CCNc3ccc(Cl)cc3)CC2)cc1 | < 2000 | 
O=C(Nc1ccc(Cl)cc1)O[C@H]1CC[C@@H](c2ccccc2)C1 | < 2000 | 
O=C(Nc1ccc(F)cc1)OC[C@H]1CC[C@@H](c2ccccc2)CC1 | < 2000 | 
O=C(Nc1ccc(F)cc1)N[C@H]1CC[C@H](c2ccccc2)CC1 | < 50 | 
O=C(Nc1cccc(Cl)c1)N[C@H]1CC[C@@H](c2ccccc2)CC1 | < 250 | 
O=C(Nc1ccc(Cl)cc1)N[C@H]1CC[C@H](c2ccccc2)CC1 | < 50 | 
O=C(Cc1ccc(Cl)cc1)N[C@H]1CC[C@@H](c2ccccc2)CC1 | < 2000 | 
O=C(Nc1cccc(Cl)c1)N[C@H]1CC[C@H](c2ccccc2)CC1 | < 50 | 
O=C(Nc1ccc(Cl)cc1)N[C@H]1CC[C@@H](c2ccccc2)CC1 | < 250 | 

SMILES | IC50 [1] [nM] | IC50 (human IDO1) [nM]
O=C(Cc1cccc(Cl)c1)N[C@H]1CC[C@H](c2ccccc2)CC1 | < 50 | 
O=C(Nc1ccc(Cl)cc1)N1CCC(Oc2ccccc2)CC1 | < 2000 | 
O=C(Nc1ccc(Cl)cc1)C1CCC(Oc2ccccc2)CC1 (stereo not shown) | < 250 | 
COc1ccc([C@H]2CC[C@H](NC(=O)Cc3ccc(Cl)cc3)CC2)cc1 | < 250 | 
O=S(=O)(CC1CCC(c2ccnc3ccccc23)CC1)Nc1ccc(Cl)cc1 (stereo not shown) | < 50 | 
COc1ccc(C2CCC(CC(Nc3ccc(F)cc3)C(F)(F)F)CC2)cc1 (stereo not shown) | < 50 | 
COc1ccc(C2CCC(CC(Nc3ccc(Cl)cc3)C(F)(F)F)CC2)cc1 (stereo not shown) | < 50 | 
N#Cc1ccc(CC(=O)N[C@H]2CC[C@H](c3ccccc3)CC2)cc1 | < 250 | 
CC(C(=O)N[C@H]1CC[C@H](c2ccccc2)CC1)c1ccc(C#N)cc1 (stereo partly shown) | < 50 | 
O=C(Cc1ccc(Cl)cc1)N[C@H]1CC[C@H](c2ccnc3ccccc32)CC1 | < 250 | 
Cc1c(C2CCC(C(C)NC(=O)c3ccc(Cl)cc3)CC2)ccnc1F (single isomer, unassigned) [Example 158b, 4-chloro-N-(1-(4-(2-fluoro-3-methylpyridin-4-yl)cyclohexyl)ethyl)benzamide] |  | < 50
Cc1c(C2CCC(C(C)NC(=O)c3ccc(Cl)cc3)CC2)ccnc1F (single isomer, unassigned) [Example 158c, 4-chloro-N-(1-(4-(2-fluoro-3-methylpyridin-4-yl)cyclohexyl)ethyl)benzamide] |  | < 50
Cc1c(C2CCC(C(C)NC(=O)c3ccc(Cl)cc3)CC2)ccnc1F (single isomer, unassigned) [Example 158d, 4-chloro-N-(1-(4-(2-fluoro-3-methylpyridin-4-yl)cyclohexyl)ethyl)benzamide] |  | < 50
Cc1c(C2CCC(C(C)NC(=O)c3ccc(Cl)cc3)CC2)ccnc1F (single isomer, unassigned) [Example 158e, 4-chloro-N-(1-(4-(2-fluoro-3-methylpyridin-4-yl)cyclohexyl)ethyl)benzamide] |  | < 2000
Cc1nccc(C2CCC(C(C)NC(=O)c3ccc(Cl)cc3)CC2)c1C (single isomer, unassigned) [Example 159b, 4-chloro-N-(1-(4-(2,3-dimethylpyridin-4-yl)cyclohexyl)ethyl)benzamide] |  | < 250
Cc1nccc(C2CCC(C(C)NC(=O)c3ccc(Cl)cc3)CC2)c1C (single isomer, unassigned) [Example 159c, 4-chloro-N-(1-(4-(2,3-dimethylpyridin-4-yl)cyclohexyl)ethyl)benzamide] |  | < 50
Cc1nccc(C2CCC(C(C)NC(=O)c3ccc(Cl)cc3)CC2)c1C (single isomer, unassigned) [Example 159d, 4-chloro-N-(1-(4-(2,3-dimethylpyridin-4-yl)cyclohexyl)ethyl)benzamide] |  | < 50
Cc1nccc(C2CCC(C(C)NC(=O)c3ccc(Cl)cc3)CC2)c1C (single isomer, unassigned) [Example 159e, 4-chloro-N-(1-(4-(2,3-dimethylpyridin-4-yl)cyclohexyl)ethyl)benzamide] |  | < 2000
Cc1cnccc1C1CCC(C(C)NC(=O)c2ccc(Cl)cc2)CC1 (single isomer, unassigned) [Example 160b, 4-chloro-N-(1-(4-(3-methylpyridin-4-yl)cyclohexyl)ethyl)benzamide] |  | < 2000
Cc1cnccc1C1CCC(C(C)NC(=O)c2ccc(Cl)cc2)CC1 (single isomer, unassigned) [Example 160c, 4-chloro-N-(1-(4-(3-methylpyridin-4-yl)cyclohexyl)ethyl)benzamide] |  | < 2000
Cc1cnccc1C1CCC(C(C)NC(=O)c2ccc(Cl)cc2)CC1 (single isomer, unassigned) [Example 160d, 4-chloro-N-(1-(4-(3-methylpyridin-4-yl)cyclohexyl)ethyl)benzamide] |  | < 250
Cc1cnccc1C1CCC(C(C)NC(=O)c2ccc(Cl)cc2)CC1 (single isomer, unassigned) [Example 160e, 4-chloro-N-(1-(4-(3-methylpyridin-4-yl)cyclohexyl)ethyl)benzamide] |  | < 50
CC(NC(=O)c1ccc(Cl)cc1)C1CCC(c2ccncc2F)CC1 (single isomer, unassigned) [Example 161a, 4-chloro-N-(1-(4-(3-fluoropyridin-4-yl)cyclohexyl)ethyl)benzamide] |  | < 2000
CC(NC(=O)c1ccc(Cl)cc1)C1CCC(c2ccncc2F)CC1 (single isomer, unassigned) [Example 161b, 4-chloro-N-(1-(4-(3-fluoropyridin-4-yl)cyclohexyl)ethyl)benzamide] |  | < 50
CC(NC(=O)c1ccc(Cl)cc1)C1CCC(c2ccncc2F)CC1 (single isomer, unassigned) [Example 161c, 4-chloro-N-(1-(4-(3-fluoropyridin-4-yl)cyclohexyl)ethyl)benzamide] |  | < 250
N#Cc1ccc(NC(=O)N[C@H]2CC[C@H](c3ccnc4ccc(F)cc43)CC2)cc1 [Example 121] |  | < 250
CCC(NC(=O)c1ccc(-c2ccccc2)cc1)[C@H]1CC[C@@H](c2cnc3ccccc3c2)CC1 (stereo partly shown) [Example 200] |  | < 250
